≈ marks a conversion by molar mass, not a printed value. Like-named read-outs stand apart in the source and are kept apart here. Positions of bridges follow the written chain, without caps; N, C: chain ends. Residues, ends and D or L forms follow the SMILES beside them.
Tests used:
[1] = test system: Acinetobacter baumannii (strain XDR CI 2675); assay type: cell-based
Procedure: (§1) The antimicrobial activity of the peptides was determined using two-fold serial dilutions in sterile 96-well flat-bottom polystyrene microplates (Eppendorf, Hamburg, Germany) (Cat. No. 0030730011), as previously described. The following strains of bacteria were used: E. coli ATCC 25922, E. coli ML35p (ATCC collection), E. coli BW 25113 (Keio collection), Pseudomonas aeruginosa PAO1 (ATCC collection), P. aeruginosa ATCC 27853, Klebsiella pneumoniae ATCC 700603, Staphylococcus aureus 209P (ATCC collection), S. aureus ATCC 29213, and Micrococcus luteus B-1314 (VKM collection). Acinetobacter baumannii (strain XDR CI 2675) was provided by the I.M. Sechenov First Moscow State Medical University hospital. After a 24 h incubation period, the metabolic activity of the bacteria was assessed by adding 20 µL of a redox indicator, resazurin (Sigma-Aldrich, St. Louis, MO, USA), at a concentration of 0.1 mg/mL, to the wells. The plate was then incubated for a further two hours. The minimum inhibitory concentration (MIC) was determined as the lowest concentration of the peptide at which no color change in the resazurin indicator was observed. The results were presented as median values, which were determined based on at least three independent experiments carried out in triplicate.

E. coli ATCC 25922 = assay type: cell-based; details: ATCC 25922, 24 h
Procedure: as §1

E. coli BW 25113 = assay type: cell-based; details: two-fold serial dilutions, 24 h incubation, resazurin read-out; median of at least three independent experiments in triplicate
Procedure: as §1

E. coli ML35p = assay type: cell-based
Procedure: as §1

all the test strains = assay type: cell-based; details: geometric mean over the 10 test strains
Procedure: as §1

P. aeruginosa ATCC 27853 = assay type: cell-based, Pseudomonas aeruginosa; details: ATCC 27853, 24 h
Procedure: as §1

P. aeruginosa PAO1 = assay type: cell-based, Pseudomonas aeruginosa; details: PAO1, 24 h
Procedure: as §1

[2] = test system: K. pneumoniae ATCC 700603; assay type: cell-based, Klebsiella pneumoniae; details: ATCC 700603, 24 h
Procedure: as §1

S. aureus 209P = assay type: cell-based, Staphylococcus aureus; details: 24 h
Procedure: as §1

S. aureus ATCC 29213 = assay type: cell-based, Staphylococcus aureus; details: ATCC 29213, 24 h
Procedure: as §1

M. luteus B-1314 = assay type: cell-based, Micrococcus luteus; details: B-1314, 24 h
Procedure: as §1

[3] = test system: freshly isolated human erythrocytes (hRBCs); test: Hemolysis assay (hemoglobin release); assay type: cell-based; details: red cells of human, 64
From the text: To assess the hemolytic activity of the compounds, freshly isolated human erythrocytes (hRBCs) were used according to the methodology described in a previous study. Melittin was used as a positive peptide control that induces significant hemolysis. Isotonic phosphate buffer (PBS) served as a negative control, while 0.1% Triton X-100 solution was used as a control for complete hemolysis.

[4] = test system: human keratinocyte cell line (HaCaT); test: Cytotoxicity MTT assay; assay type: cell-based; details: 18 h, 128
Procedure: In order to evaluate the cytotoxicity of the peptides against a human keratinocyte cell line (HaCaT, Cat. No. 300493) (Cell Lines Service, Köln, Germany), the colorimetric 3-(4,5-dimethylthiazol-2-yl)-2,5-diphenyltetrazolium bromide (MTT) dye reduction assay was performed, as described in a previous publication. Wells containing no peptide were used as a 100% survival control. Each peptide was tested in two separate experiments to ensure the reliability of the results.

[5] = strain XDR CI 2675, two-fold serial dilutions, 24 h incubation, resazurin read-out, median of at least three independent experiments in triplicate
[6] = two-fold serial dilutions, 24 h incubation, resazurin read-out, median of at least three independent experiments in triplicate

| Compound | MIC, A. baumannii ([1]; strain XDR CI 2675, 24 h) | MIC, E. coli ATCC 25922 (E. coli ATCC 25922) | MIC, E. coli BW 25113 (E. coli BW 25113) | MIC, E. coli ML35p (E. coli ML35p; ML35p, 24 h) | MIC (GM), geometric mean of the peptide's MICs against all the test strains (all the test strains) | MIC, P. aeruginosa ATCC 27853 (P. aeruginosa ATCC 27853) | MIC, P. aeruginosa PAO1 (P. aeruginosa PAO1) | MIC, K. pneumoniae ATCC 700603 [2] | MIC, S. aureus 209P (S. aureus 209P) | MIC, S. aureus ATCC 29213 (S. aureus ATCC 29213) | MIC, M. luteus B-1314 (M. luteus B-1314) | Hemolytic activity, % (64 μM) [3] | Cell Viability, % (128 μM) [4] | MIC, A. baumannii [1, 5] | MIC, E. coli ML35p (E. coli ML35p; [6]) |
| --- | --- | --- | --- | --- | --- | --- | --- | --- | --- | --- | --- | --- | --- | --- | --- |
| CC(C)C[C@H](NC(=O)[C@H](CCCNC(=N)N)NC(=O)CNC(=O)CNC(=O)[C@@H](N)CCCNC(=N)N)C(=O)N[C@H]1CSSC[C@@H](C(=O)N[C@@H](CCCNC(=N)N)C(=O)NCC(=O)N[C@@H](CCCNC(=N)N)C(=O)O)NC(=O)[C@H](C)NC(=O)[C@@H]2CSSC[C@H](NC(=O)[C@H](Cc3ccc(O)cc3)NC1=O)C(=O)N[C@@H](CCCNC(=N)N)C(=O)N[C@@H](CCCNC(=N)N)C(=O)N[C@@H](CCCNC(=N)N)C(=O)N[C@@H](Cc1ccccc1)C(=O)N2 [[V14A,V16R]] (H-RGGRLCYCRRRFCACRGR-OH; disulfide 6-15, 8-13; N-terminus and C-terminus assumed) | 0.5 µM (≈ 1.09 µg/mL) | 2 µM (≈ 4.37 µg/mL) | 2 µM (≈ 4.37 µg/mL) | 1 µM (≈ 2.19 µg/mL) | 4.9 µM | 4 µM (≈ 8.74 µg/mL) | 8 µM (≈ 17.5 µg/mL) | 32 µM (≈ 69.9 µg/mL) | 32 µM (≈ 69.9 µg/mL) | 32 µM (≈ 69.9 µg/mL) | 4 µM (≈ 8.74 µg/mL) | 1.1 (±0.15) % | 110.6 (± 6.68) % |  |  |
| CC(C)C[C@H](NC(=O)[C@H](CCCNC(=N)N)NC(=O)CNC(=O)CNC(=O)[C@@H](N)CCCNC(=N)N)C(=O)N[C@H]1CSSC[C@@H](C(=O)N[C@H](C(=O)NCC(=O)N[C@@H](CCCNC(=N)N)C(=O)O)C(C)C)NC(=O)[C@H](C(C)C)NC(=O)[C@@H]2CSSC[C@H](NC(=O)[C@H](CCCNC(=N)N)NC1=O)C(=O)N[C@@H](CCCNC(=N)N)C(=O)N[C@@H](CCCNC(=N)N)C(=O)N[C@@H](CCCNC(=N)N)C(=O)N[C@@H](Cc1ccccc1)C(=O)N2 [[Y7R]] (H-RGGRLCRCRRRFCVCVGR-OH; disulfide 6-15, 8-13; N-terminus and C-terminus assumed) |  | 0.5 µM (≈ 1.07 µg/mL) | 0.5 µM (≈ 1.07 µg/mL) |  | 2.5 µM | 4 µM (≈ 8.6 µg/mL) | 8 µM (≈ 17.2 µg/mL) | 8 µM (≈ 17.2 µg/mL) | 16 µM (≈ 34.4 µg/mL) | 16 µM (≈ 34.4 µg/mL) | 2 µM (≈ 4.3 µg/mL) | 2.1 (±0.53) % | 67.6 (± 8.68) % | 0.5 µM (≈ 1.07 µg/mL) | 0.5 µM (≈ 1.07 µg/mL) |
| CC(C)C[C@H](NC(=O)[C@H](CCCNC(=N)N)NC(=O)CNC(=O)CNC(=O)[C@@H](N)CCCNC(=N)N)C(=O)N[C@H]1CSSC[C@@H](C(=O)N[C@H](C(=O)NCC(=O)N[C@@H](CCCNC(=N)N)C(=O)O)C(C)C)NC(=O)[C@H](CCCNC(=N)N)NC(=O)[C@@H]2CSSC[C@H](NC(=O)[C@H](Cc3ccc(O)cc3)NC1=O)C(=O)N[C@@H](CCCNC(=N)N)C(=O)N[C@@H](CCCNC(=N)N)C(=O)N[C@@H](CCCNC(=N)N)C(=O)N[C@@H](Cc1ccccc1)C(=O)N2 [[V14R]] (H-RGGRLCYCRRRFCRCVGR-OH; disulfide 6-15, 8-13; N-terminus and C-terminus assumed) | 2 µM (≈ 4.43 µg/mL) | 4 µM (≈ 8.85 µg/mL) | 2 µM (≈ 4.43 µg/mL) | 4 µM (≈ 8.85 µg/mL) | 9.8 µM | >32 µM | 32 µM (≈ 70.8 µg/mL) | 32 µM (≈ 70.8 µg/mL) | 32 µM (≈ 70.8 µg/mL) | 32 µM (≈ 70.8 µg/mL) | 2 µM (≈ 4.43 µg/mL) | 1.2 (±0.43) % | 98.6 (± 6.0) % |  |  |
| CC(C)[C@H](NC(=O)[C@@H]1CSSC[C@H](NC(=O)[C@H](C)NC(=O)[C@H](CCCNC(=N)N)NC(=O)CNC(=O)CNC(=O)[C@@H](N)CCCNC(=N)N)C(=O)N[C@@H](Cc2ccc(O)cc2)C(=O)N[C@H]2CSSC[C@H](NC(=O)[C@H](Cc3ccccc3)NC(=O)[C@H](CCCNC(=N)N)NC(=O)[C@H](CCCNC(=N)N)NC(=O)[C@H](CCCNC(=N)N)NC2=O)C(=O)N[C@@H](C(C)C)C(=O)N1)C(=O)NCC(=O)N[C@@H](CCCNC(=N)N)C(=O)O [[L5A]] (H-RGGRACYCRRRFCVCVGR-OH; disulfide 6-15, 8-13; N-terminus and C-terminus assumed) |  | 0.5 µM (≈ 1.06 µg/mL) | 0.125 µM (≈ 0.264 µg/mL) |  | 0.4 µM | 0.25 µM (≈ 0.529 µg/mL) | 0.5 µM (≈ 1.06 µg/mL) | 1 µM (≈ 2.11 µg/mL) | 1 µM (≈ 2.11 µg/mL) | 1 µM (≈ 2.11 µg/mL) | 0.5 µM (≈ 1.06 µg/mL) | 40.3 (±6.95) % | 10.0 (±3.27) % | 0.25 µM (≈ 0.529 µg/mL) | 0.25 µM (≈ 0.529 µg/mL) |
| CC(C)[C@H](NC(=O)[C@@H]1CSSC[C@H](NC(=O)[C@H](CCCNC(=N)N)NC(=O)[C@H](CCCNC(=N)N)NC(=O)CNC(=O)CNC(=O)[C@@H](N)CCCNC(=N)N)C(=O)N[C@@H](Cc2ccc(O)cc2)C(=O)N[C@H]2CSSC[C@H](NC(=O)[C@H](Cc3ccccc3)NC(=O)[C@H](CCCNC(=N)N)NC(=O)[C@H](CCCNC(=N)N)NC(=O)[C@H](CCCNC(=N)N)NC2=O)C(=O)N[C@@H](C(C)C)C(=O)N1)C(=O)NCC(=O)N[C@@H](CCCNC(=N)N)C(=O)O [[L5R]] (H-RGGRRCYCRRRFCVCVGR-OH; disulfide 6-15, 8-13; N-terminus and C-terminus assumed) |  | 1 µM (≈ 2.2 µg/mL) | 0.25 µM (≈ 0.55 µg/mL) |  | 1.2 µM | 1 µM (≈ 2.2 µg/mL) | 1 µM (≈ 2.2 µg/mL) | 8 µM (≈ 17.6 µg/mL) | 4 µM (≈ 8.8 µg/mL) | 4 µM (≈ 8.8 µg/mL) | 1 µM (≈ 2.2 µg/mL) | 14.1 (±2.13) % | 7.7 (± 4.64) % | 0.5 µM (≈ 1.1 µg/mL) | 0.5 µM (≈ 1.1 µg/mL) |
| CC(C)C[C@H](NC(=O)[C@H](CCCNC(=N)N)NC(=O)CNC(=O)CNC(=O)[C@@H](N)CCCNC(=N)N)C(=O)N[C@H]1CSSC[C@@H](C(=O)N[C@H](C(=O)NCC(=O)N[C@@H](CCCNC(=N)N)C(=O)O)C(C)C)NC(=O)[C@H](C(C)C)NC(=O)[C@@H]2CSSC[C@H](NC(=O)[C@H](Cc3ccc(O)cc3)NC1=O)C(=O)N[C@@H](CCCNC(=N)N)C(=O)N[C@@H](CCCNC(=N)N)C(=O)N[C@@H](CCCNC(=N)N)C(=O)N[C@@H](Cc1ccccc1)C(=O)N2 [PG-1, Protegrin-1] (H-RGGRLCYCRRRFCVCVGR-OH; disulfide 6-15, 8-13; N-terminus and C-terminus assumed) |  | 0.5 µM (≈ 1.08 µg/mL) | 0.125 µM (≈ 0.27 µg/mL) |  | 0.4 µM | 0.25 µM (≈ 0.539 µg/mL) | 0.5 µM (≈ 1.08 µg/mL) | 1 µM (≈ 2.16 µg/mL) | 0.5 µM (≈ 1.08 µg/mL) | 1 µM (≈ 2.16 µg/mL) | 0.25 µM (≈ 0.539 µg/mL) | 96.3 (±10.72) % | 6.1 (±2.07) % | 0.25 µM (≈ 0.539 µg/mL) | 0.25 µM (≈ 0.539 µg/mL) |
